Experimental data from patent US20030130336A1, “Method of determining the activity of a central nervous system drug on striatal dopamine transporter populations” (Pfizer Inc., priority 2002, published 2003).
Where a name gives a salt, the structure may show the parent alone.

Target: T1, dopamine transporters (DAT) in the striatal nuclei (Homo sapiens, UniProt Q01959)
T1 construct: from tissue; host or cells: striatum (caudate and putamen) of living volunteers, imaged in vivo by SPECT
Assay: [123I]β-CIT SPECT imaging of striatal DAT binding (V3″ ratio)
Type: in vivo

T1 sequence (Q01959 whole entry): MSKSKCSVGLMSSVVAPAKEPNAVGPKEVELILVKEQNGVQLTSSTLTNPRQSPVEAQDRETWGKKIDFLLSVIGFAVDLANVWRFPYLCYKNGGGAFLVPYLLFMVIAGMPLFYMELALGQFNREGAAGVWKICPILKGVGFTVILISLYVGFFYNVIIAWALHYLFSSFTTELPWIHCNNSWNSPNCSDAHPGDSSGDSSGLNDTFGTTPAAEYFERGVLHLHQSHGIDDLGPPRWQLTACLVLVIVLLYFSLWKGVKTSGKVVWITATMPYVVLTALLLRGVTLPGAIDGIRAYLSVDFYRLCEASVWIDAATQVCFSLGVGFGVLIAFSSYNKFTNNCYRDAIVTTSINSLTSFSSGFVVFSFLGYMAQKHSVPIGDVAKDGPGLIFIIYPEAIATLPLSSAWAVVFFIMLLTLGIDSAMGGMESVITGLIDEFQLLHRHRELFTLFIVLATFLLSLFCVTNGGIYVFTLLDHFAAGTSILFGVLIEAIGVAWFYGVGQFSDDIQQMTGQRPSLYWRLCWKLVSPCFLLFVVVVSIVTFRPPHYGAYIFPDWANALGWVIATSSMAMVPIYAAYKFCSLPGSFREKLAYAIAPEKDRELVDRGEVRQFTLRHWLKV

Compound: CC(NC(C)(C)C)C(=O)c1cccc(Cl)c1 (stereo not drawn) [bupropion hydrochloride]
- St-V3″ (Mean ± SD), Scan 2 (striatum, specific to non-specific [123I]β-CIT binding, Day 8, Group 1 bupropion HCl SR 100 mg po qAM, Group 2 citalopram 20 mg po BID, days 1-8, healthy volunteers): 7.42 ± 1.13
- St-V3″ (Mean ± SD), Scan 3 (striatum, Day 16, Group 1 bupropion HCl SR 100 mg po BID days 9-16, Group 2 citalopram 20 mg po BID plus bupropion HCl SR 100 mg qAM days 9-16): 7.37 ± 1.69
- change in striatal DAT binding (versus baseline Scan 1, RMANOVA, paired t-test with Bonferroni correction): did not lead to any significant changes
